Results on one compound are retold here after article PMC6445163, “Design, synthesis, and evaluation of novel 2-phenylpropionic acid derivatives as dual COX inhibitory-antibacterial agents” (Journal of Enzyme Inhibition and Medicinal Chemistry, 2017).

Data set [1] concerns the target T1, COX-1 (Ovis aries, UniProt P05979).
T1 construct: purchased Biovision K548-100
T1 sequence (P05979 25-600): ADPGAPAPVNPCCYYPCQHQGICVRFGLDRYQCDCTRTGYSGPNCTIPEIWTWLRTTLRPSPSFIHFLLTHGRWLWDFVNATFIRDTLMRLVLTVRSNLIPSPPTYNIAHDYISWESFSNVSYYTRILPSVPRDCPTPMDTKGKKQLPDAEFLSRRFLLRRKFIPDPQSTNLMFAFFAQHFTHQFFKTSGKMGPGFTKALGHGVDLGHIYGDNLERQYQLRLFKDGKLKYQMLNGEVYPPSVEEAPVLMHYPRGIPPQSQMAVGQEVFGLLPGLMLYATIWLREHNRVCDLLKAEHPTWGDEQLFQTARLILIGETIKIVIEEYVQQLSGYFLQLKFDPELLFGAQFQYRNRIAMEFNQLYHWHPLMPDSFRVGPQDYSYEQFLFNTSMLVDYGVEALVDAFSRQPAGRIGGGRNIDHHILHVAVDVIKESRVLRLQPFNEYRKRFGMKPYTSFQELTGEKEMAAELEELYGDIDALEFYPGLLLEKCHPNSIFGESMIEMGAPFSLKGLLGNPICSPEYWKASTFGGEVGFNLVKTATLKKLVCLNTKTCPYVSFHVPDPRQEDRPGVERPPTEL
As to the kind of experiment: fluorometric COX-1 inhibitor screening kit assay. It counts as biochemical. The conditions noted are these: fluorometric kit, 25 °C. The method, then: Inhibitory potency of the compounds against COX-1 and COX-2 enzymes was determined using fluorometric COX-1 and COX-2 inhibitor screening kits (Biovision, Zurich, Switzerland). Experimental protocol was followed as described in the guides of the supplier[47]^,[48]. All of the pipettings in the assay were performed by Biotek Precision robotic system (BioTek Instruments, Inc., Winooski, VT). […] Appropriate two points (T1 and T2) in the linear range of the plot were chosen, and the corresponding fluorescence values (RFU1 and RFU2) were obtained. The slope for all samples, including enzyme control (EC), by dividing the net ΔRFU (RFU2–RFU1) values by the time ΔT (T2–T1) were calculated by using following equation: % Relative inhibition=(Slope of EC-Slope of S/Slope of EC)×100
This initial in vitro assay was done with two concentrations (10^−3 and 10^−4 M) for all compounds. […] The IC50 value was calculated from the plots of enzyme activity against concentrations by applying regression analyses on GraphPad Prism Version 5 (GraphPad Software, La Jolla, CA).
Selectivity indexes (SI) were expressed as IC50 (COX-1)/IC50 (COX-2). Selectivity toward COX-2 decreases as the corresponding SI decreases while selectivity toward COX-1 isoform increases as the corresponding SI decreases.

Data set [2] in a line: MTT cytotoxicity test. As to conditions: mouse. The method, then: NIH/3T3 cells were incubated according to the supplier’s recommendations. NIH/3T3 cells were seeded at 1 × 10^4 cells into each well of 96-well plates. MTT assay was performed as previously described[51]^,[52].
There are a number of requirements to be fulfilled for successful new drug development. […] This assay is based upon the reduction of yellow MTT dye by metabolically active eukaryotic and prokaryotic cells to form the purple formazan product. The assay is generally used to examine cell viability and to estimate cell culture growth[66]^,[67].

For the compound `CS(=O)(=O)Nc1ccc([N+](=O)[O-])cc1Oc1ccccc1` [Nimesulide, reference compound], the concentration for half-maximal inhibition (IC50) in data set [1] is 4.28 µM; in data set [2], no less than 1000 µM.
